This note sets out measurements from BindingDB's records for doi:10.1021/jm201198w (University of Kentucky, 2012).

This assay addresses Tyrosine-protein kinase SYK (Homo sapiens) (UniProt P43405). Nature of the assay: Inhibition of SYK.

`Nc1nc(Nc2ccc([C@H]3CC[C@H](N4CCOCC4)CC3)cc2)nn1-c1ccccn1` gave a Ki of 0.22 µM.

A word on the Ki: it is the dissociation constant of the complex between target and ligand, obtained from inhibition or displacement. A low value points to a stronger hold on the target.
